Test results taken from US20060093617A1, “Peptides for inducing a CTL and/or HTL response to hepatitis C virus” (Innogenetics, N.V., priority 2004, published 2006).
Where a SMILES comes first, the peptide text is derived from it.

Assays:
[1] = target: T1, DRB1*0101 (Homo sapiens, UniProt P01903+P01911, A100R/D57E/F55L/F60I/F76Y/I96L/L162R/M171V/P40L/Q125E/R42F/V115G/Y59C); test: Competition binding assay using soluble HLA class II
T1 construct: endogenous in cells; host or cells: cell lysate

[2] = target: T2, HLA-Cw06 (Homo sapiens, UniProt P10321, A176E/A330V/C350S/L171W/L180W/L218V/M285V/M309V/M331V/N104K/P208H/Q277E/Q291P/R121W/R243W/S101N/S123Y/S297R/T329A/T363A/V319A/V328M); test: HLA class I competition cell-based binding assay
T2 construct: endogenous in cells

[3] = target: HLA-A02 (Homo sapiens, UniProt P04439, D140Y/D185E/D98H/E176V/E277Q/G131W/G231S/I119V/I121R/I166T/I218V/L300P/L318F/N151K/N90K/P208A/P217A/Q86G/Q94H/R138H/R169H/T345S); test: Competition binding assay using soluble HLA class I
[4] = target: T3, B*0702 (Homo sapiens, UniProt P01889); test: as above; details: for Ki: Ki (nM), HLA-B0702 section
T3 construct: endogenous in cells

| SMILES | IC50 [1] | Ki [4] | other results |
| --- | --- | --- | --- |
| CC[C@H](C)[C@H](NC(=O)[C@H](Cc1ccc(O)cc1)NC(=O)CNC(=O)[C@H](CCSC)NC(=O)[C@H](CC(C)C)NC(=O)[C@H](CC(=O)O)NC(=O)[C@H](C)N)C(=O)N1CCC[C@H]1C(=O)N[C@@H](CC(C)C)C(=O)N[C@H](C(=O)NCC(=O)N[C@@H](C)C(=O)N1CCC[C@H]1C(=O)N[C@@H](CC(C)C)C(=O)NCC(=O)O)C(C)C | 8330 nM | – | – |
| CC(C)C[C@H](NC(=O)[C@@H](NC(=O)[C@H](CCCNC(=N)N)NC(=O)[C@@H](NC(=O)CNC(=O)[C@H](Cc1c[nH]cn1)NC(=O)[C@H](C)NC(=O)[C@H](CC(C)C)NC(=O)[C@H](C)N)C(C)C)C(C)C)C(=O)O | – | 7950 nM | Ki [2]: 3310 nM; Ki [3]: 627 nM |
| CC(C)C[C@H](NC(=O)[C@@H]1CCCN1C(=O)[C@H](C)N)C(=O)NCC(=O)NCC(=O)N[C@@H](C)C(=O)N[C@@H](C)C(=O)N[C@@H](CCCNC(=N)N)C(=O)N[C@@H](C)C(=O)O | – | 115 nM | IC50 [4]: 115 nM |
| CC(C)C[C@H](NC(=O)[C@H](CCCCN)NC(=O)[C@H](CCCNC(=N)N)NC(=O)[C@H](CC(C)C)NC(=O)[C@H](CS)NC(=O)[C@H](CO)NC(=O)[C@H](C)N)C(=O)NCC(=O)N[C@H](C(=O)N1CCC[C@H]1C(=O)N1CCC[C@H]1C(=O)N[C@@H](CC(C)C)C(=O)N[C@@H](CCCNC(=N)N)C(=O)N[C@H](C(=O)N[C@@H](Cc1c[nH]c2ccccc12)C(=O)O)C(C)C)C(C)C | 4.9 nM | – | – |
| CC(C)C[C@H](NC(=O)[C@H](CCC(N)=O)NC(=O)[C@H](CO)NC(=O)[C@H](C)N)C(=O)N[C@@H](CO)C(=O)N[C@@H](C)C(=O)N1CCC[C@H]1C(=O)N[C@@H](CO)C(=O)N[C@@H](CC(C)C)C(=O)N[C@@H](CCCCN)C(=O)N[C@@H](C)C(=O)N[C@H](C(=O)N[C@@H](CS)C(=O)N[C@H](C(=O)N[C@H](C(=O)O)[C@@H](C)O)[C@@H](C)O)[C@@H](C)O | 329 nM | – | – |
| CC[C@H](C)[C@H](NC(=O)[C@H](CC(C)C)NC(=O)[C@H](CC(=O)O)NC(=O)[C@H](C)NC(=O)[C@@H](N)CC(=O)O)C(=O)N[C@@H](CCC(=O)O)C(=O)N[C@@H](C)C(=O)N[C@@H](CC(N)=O)C(=O)N[C@@H](CC(C)C)C(=O)N[C@@H](CC(C)C)C(=O)N[C@@H](Cc1c[nH]c2ccccc12)C(=O)N[C@@H](CCCNC(=N)N)C(=O)N[C@@H](CCC(N)=O)C(=O)N[C@@H](CCC(=O)O)C(=O)N[C@@H](CCSC)C(=O)O | 574 nM | – | – |
| CC(C)[C@H](NC(=O)[C@H](CCCNC(=N)N)NC(=O)[C@H](CCC(N)=O)NC(=O)CNC(=O)[C@@H]1CCCN1C(=O)[C@H](CO)NC(=O)[C@H](Cc1ccc(O)cc1)NC(=O)[C@H](CCC(N)=O)NC(=O)[C@H](Cc1ccccc1)NC(=O)CNC(=O)[C@H](Cc1ccc(O)cc1)NC(=O)[C@H](CO)NC(=O)[C@H](CO)NC(=O)CN)C(=O)N[C@@H](CCC(=O)O)C(=O)O | 11 nM | – | – |
| CC(C)C[C@H](NC(=O)[C@@H](NC(=O)[C@H](C)NC(=O)[C@H](C)NC(=O)[C@@H](NC(=O)[C@H](CO)NC(=O)[C@@H]1CCCN1C(=O)[C@H](CC(N)=O)NC(=O)[C@H](CC(C)C)NC(=O)[C@@H](NC(=O)[C@H](CC(C)C)NC(=O)[C@@H](NC(=O)[C@H](CCCCN)NC(=O)[C@H](Cc1ccc(O)cc1)NC(=O)CN)C(C)C)C(C)C)C(C)C)[C@@H](C)O)C(=O)O | 8.4 nM | – | – |
| CC(C)C[C@H](NC(=O)[C@H](CCCNC(=N)N)NC(=O)[C@@H]1CCCN1C(=O)CNC(=O)[C@H](CCCNC(=N)N)NC(=O)[C@H](CCCNC(=N)N)NC(=O)[C@@H]1CCCN1C(=O)[C@@H](N)CC(C)C)C(=O)O | – | 1 nM | – |
| CC(C)C[C@H](NC(=O)[C@H](CCCNC(=N)N)NC(=O)[C@@H]1CCCN1C(=O)CNC(=O)[C@H](CCCNC(=N)N)NC(=O)[C@H](CCCNC(=N)N)NC(=O)[C@@H]1CCCN1C(=O)[C@@H](N)CC(C)C)C(=O)NCC(=O)O | – | 124 nM | IC50 [4]: 124 nM |
| CC[C@H](C)[C@H](NC(=O)[C@H](CC(N)=O)NC(=O)CNC(=O)[C@H](CC(C)C)NC(=O)[C@H](Cc1c[nH]c2ccccc12)NC(=O)[C@H](CO)NC(=O)[C@@H](N)CC(N)=O)C(=O)N[C@H](C(=O)N[C@@H](CCSC)C(=O)N[C@@H](Cc1ccc(O)cc1)C(=O)N[C@@H](C)C(=O)N1CCC[C@H]1C(=O)N[C@H](C(=O)N[C@@H](CC(C)C)C(=O)N[C@@H](Cc1c[nH]c2ccccc12)C(=O)O)[C@@H](C)O)[C@@H](C)CC | 1.2 nM | – | – |
| CC(C)[C@H](NC(=O)CNC(=O)[C@H](CCCNC(=N)N)NC(=O)[C@@H](NC(=O)[C@H](CS)NC(=O)[C@@H](NC(=O)[C@H](C)NC(=O)[C@H](C)NC(=O)[C@@H](N)CCCNC(=N)N)C(C)C)[C@@H](C)O)C(=O)N[C@@H](C)C(=O)N[C@@H](CCCCN)C(=O)N[C@@H](C)C(=O)N[C@H](C(=O)N[C@@H](CC(=O)O)C(=O)N[C@@H](Cc1ccccc1)C(=O)O)C(C)C | 619 nM | – | – |
| CC[C@H](C)[C@H](NC(=O)[C@@H]1CCCN1C(=O)[C@H](C)NC(=O)[C@H](CC(C)C)NC(=O)[C@H](CC(C)C)NC(=O)[C@H](CCCNC(=N)N)NC(=O)[C@H](Cc1c[nH]c2ccccc12)NC(=O)CNC(=O)[C@H](CCCCN)NC(=O)[C@@H](N)CO)C(=O)N[C@H](C(=O)N[C@@H](C)C(=O)N[C@@H](Cc1ccc(O)cc1)C(=O)N[C@@H](C)C(=O)N[C@@H](CCC(N)=O)C(=O)O)[C@@H](C)O | 0.4 nM | – | – |
| CC[C@H](C)[C@H](NC(=O)[C@H](CC(C)C)NC(=O)[C@H](C)NC(=O)CNC(=O)[C@@H](NC(=O)[C@H](Cc1c[nH]c2ccccc12)NC(=O)[C@@H](NC(=O)[C@H](Cc1ccc(O)cc1)NC(=O)[C@@H](N)CO)[C@@H](C)O)[C@@H](C)O)C(=O)N[C@H](C(=O)N1CCC[C@H]1C(=O)N[C@@H](CS)C(=O)N[C@@H](C)C(=O)N[C@@H](C)C(=O)N[C@@H](CCC(=O)O)C(=O)O)[C@@H](C)O | 5.63 nM | – | – |
| CC(C)C[C@H](NC(=O)CNC(=O)[C@H](CCCNC(=N)N)NC(=O)[C@H](Cc1ccc(O)cc1)NC(=O)[C@H](Cc1ccc(O)cc1)NC(=O)[C@H](C)NC(=O)[C@@H](N)C(C)C)C(=O)N[C@@H](CC(=O)O)C(=O)N[C@H](C(=O)O)C(C)C | – | 1420 nM | Ki [2]: 231 nM |
| CC[C@H](C)[C@H](NC(=O)[C@H](CC(N)=O)NC(=O)CNC(=O)[C@H](CC(C)C)NC(=O)[C@H](Cc1c[nH]c2ccccc12)NC(=O)[C@H](CO)NC(=O)[C@H](CC(N)=O)NC(=O)[C@@H](N)C(C)C)C(=O)N[C@H](C(=O)N[C@@H](CCSC)C(=O)N[C@@H](Cc1ccc(O)cc1)C(=O)N[C@@H](C)C(=O)N1CCC[C@H]1C(=O)N[C@H](C(=O)N[C@@H](CC(C)C)C(=O)O)[C@@H](C)O)[C@@H](C)CC | 1.42 nM | – | – |
| CC[C@H](C)[C@H](NC(=O)[C@H](Cc1c[nH]cn1)NC(=O)[C@@H](NC(=O)[C@H](CC(C)C)NC(=O)CNC(=O)[C@@H](NC(=O)[C@H](Cc1ccccc1)NC(=O)[C@@H](NC(=O)[C@H](CO)NC(=O)[C@H](CCC(=O)O)NC(=O)[C@@H](N)Cc1c[nH]c2ccccc12)C(C)C)[C@@H](C)O)[C@@H](C)O)C(=O)N[C@@H](CC(=O)O)C(=O)N[C@@H](C)C(=O)N[C@@H](Cc1c[nH]cn1)C(=O)N[C@@H](Cc1ccccc1)C(=O)O | 122 nM | – | – |
| CC(C)C[C@H](NC(=O)CNC(=O)[C@H](CC(C)C)NC(=O)[C@H](C)NC(=O)[C@H](CO)NC(=O)[C@H](CC(C)C)NC(=O)[C@H](CCCCN)NC(=O)[C@H](C)NC(=O)[C@H](C)N)C(=O)O (H-AAKLSALGL-OH; N-terminus and C-terminus assumed) | – | 277 nM | IC50 [4]: 277 nM |
| CC(C)C[C@H](NC(=O)[C@H](C)NC(=O)[C@H](CCCNC(=N)N)NC(=O)[C@H](C)NC(=O)[C@H](C)N)C(=O)N[C@@H](C)C(=O)N[C@@H](Cc1c[nH]cn1)C(=O)NCC(=O)N[C@H](C(=O)O)C(C)C (H-AARALAHGV-OH; N-terminus and C-terminus assumed) | – | 209 nM | – |
| C[C@H](N)C(=O)N1CCC[C@H]1C(=O)N[C@H](C(=O)NCC(=O)N[C@@H](CO)C(=O)NCC(=O)N[C@@H](CCCCN)C(=O)N[C@@H](CO)C(=O)N[C@H](C(=O)O)[C@@H](C)O)[C@@H](C)O (H-APTGSGKST-OH; N-terminus and C-terminus assumed) | – | 370 nM | IC50 [4]: 370 nM |
| CSCC[C@H](NC(=O)[C@H](Cc1ccc(O)cc1)NC(=O)[C@H](C)NC(=O)CNC(=O)[C@H](Cc1ccccc1)NC(=O)CNC(=O)[C@H](CC(C)C)NC(=O)[C@@H](NC(=O)[C@H](C)N)[C@@H](C)O)C(=O)O (H-ATLGFGAYM-OH) | – | 13000 nM | – |
| CC(C)C[C@H](NC(=O)[C@H](CCCNC(=N)N)NC(=O)[C@H](C)NC(=O)CN)C(=O)N[C@H](C(=O)N[C@H](C(=O)N[C@@H](CC(C)C)C(=O)N[C@@H](C)C(=O)N[C@H](C(=O)N[C@@H](C)C(=O)N[C@H](C(=O)N1CCC[C@H]1C(=O)N1CCC[C@H]1C(=O)NCC(=O)N[C@@H](CO)C(=O)O)[C@@H](C)O)[C@@H](C)O)C(C)C)C(C)C (H-GARLVVLATATPPGS-OH; N-terminus and C-terminus assumed) | 173 nM | – | – |
| CSCC[C@H](NC(=O)CNC(=O)[C@H](CO)NC(=O)[C@@H]1CCCN1C(=O)[C@H](CCCNC(=N)N)NC(=O)[C@H](CCC(=O)O)NC(=O)CNC(=O)[C@@H]1CCCN1C(=O)[C@@H](N)[C@@H](C)O)C(=O)O (H-TPGERPSGM-OH) | – | 199 nM | IC50 [4]: 199 nM |
| CC[C@H](C)[C@H](NC(=O)[C@@H](NC(=O)[C@@H](N)[C@@H](C)O)[C@@H](C)O)C(=O)N[C@@H](CCSC)C(=O)N[C@@H](C)C(=O)N[C@@H](CCCCN)C(=O)N[C@@H](CC(N)=O)C(=O)N[C@@H](CCC(=O)O)C(=O)N[C@H](C(=O)N[C@@H](Cc1ccccc1)C(=O)N[C@@H](CS)C(=O)N[C@H](C(=O)N[C@@H](CCC(N)=O)C(=O)N1CCC[C@H]1C(=O)N[C@@H](CCC(=O)O)C(=O)O)C(C)C)C(C)C (H-TTIMAKNEVFCVQPE-OH; N-terminus and C-terminus assumed) | 3730 nM | – | – |
